# Test results taken from US11793845B2, “Composition for ameliorating peripheral sensory neuropathy” (KINKI UNIVERSITY, priority 2016, dated 2023).
# Assays:
# [1] = system: Peripheral Sensory Neuropathy Induced by Paclitaxel in Mice; assay: von Frey test, paclitaxel-induced peripheral sensory neuropathy; type: in vivo; settings: duloxetine 30 mg/kg daily
# Excerpt: The mice in the three groups in the above (1) were put in a cage and a filament having a strength of 0.16 g was pressed on the plantar surface of the leg to measure the number of times (a score) of avoidance response.
# Male Balb/c mice of 6 to 7 weeks old were used as in Example 1. The mice were divided into three groups: a control group, a paclitaxel administration group, and a paclitaxel and Lentinus edodes mycelium extract administration group (paclitaxel+Lentinus edodes mycelium extract administration group). Paclitaxel was administered to each mouse once a day at a dose of 6 mg/kg. Further, the Lentinus edodes mycelium extract was administered to each mouse once a day at a dose of 2 g/kg.
# Further, the number of times of administration was set to once a week (on Day 0, Day 7, and Day 14) for paclitaxel and daily (from Day 0 to Day 15) for the Lentinus edodes mycelium extract in both the von Frey test and the cold plate test below.
# Evaluation was performed in the same manner as in the test with oxaliplatin. Referring to FIG. 3, the horizontal axis indicates an elapsed time after administration (days) and the vertical axis indicates the avoidance response (scores). Open circles with a solid line represent the control group. Filled circles with a solid line represent the group in which only paclitaxel was administered. Open squares with a dash line represent the group in which paclitaxel and the Lentinus edodes mycelium extract were administered (paclitaxel+Lentinus edodes mycelium extract administration group). When the difference with the control group was determined to be significant using a significance level of 5%, the data were marked by “*”.
# (§1) In the present test, the mice were divided into six groups by a difference in test objects. As in Example 1, male Balb/c mice of 6 to 7 weeks old were used. […]
# [2] = system: Peripheral Sensory Neuropathy Induced by Bortezomib in Mice; assay: cold plate test, bortezomib-induced peripheral sensory neuropathy; type: in vivo; settings: duloxetine 30 mg/kg daily
# Description: The effect of the Lentinus edodes mycelium extract on the paresthesia to cold stimulation was tested by performing the cold plate test. The mice in the three groups in the above (1) were put on a cold plate set to 10° C. and a response time for avoidance (a latency) was measured. The shorter latency means that the mouse avoids the cold stimulation of the cold plate more.
# In the present test, the mice were divided into three groups by a difference in test objects. As in Example 1, male Balb/c mice of 6 to 7 weeks old were used. The mice were divided into a total of three groups, a control group, a bortezomib administration group, and a bortezomib and Lentinus edodes mycelium extract administration group (bortezomib+Lentinus edodes mycelium extract administration group).
# Bortezomib was administered to each mouse once a day at a dose of 1 mg/kg. Further, the Lentinus edodes mycelium extract was administered to each mouse once a day at a dose of 2 g/kg.
# Evaluation was performed in the same manner as in the test with oxaliplatin in Example 1. Referring to FIG. 8, the horizontal axis indicates the elapsed time after administration (days) and the vertical axis indicates the avoidance response time (seconds). Open circles with a solid line represent the control group. Filled circles with a solid line represent the group in which only bortezomib was administered. Open squares with a dash line represent the group in which bortezomib and the Lentinus edodes mycelium extract were administered at the same time (bortezomib+Lentinus edodes mycelium extract administration groups). When the difference with the control group was determined to be significant using a significance level of 5%, the data were marked by “*”.
# as §1
structure (smiles),measurement,setting,value
CNCC[C@H](Oc1cccc2ccccc12)c1cccs1 [duloxetine],"avoidance score compared with paclitaxel administration group, von Frey test",[1]; 3-day delayed after paclitaxel,almost the same avoidance score as that in the paclitaxel administration group
same,"avoidance score, von Frey test",[1]; 6-day delayed after paclitaxel,same tendency as that in the duloxetine 3-day delayed administration group
same,"latency compared with bortezomib administration group, cold plate test",[2]; 3-day delayed after bortezomib,almost the same as that in the bortezomib administration group
same,"latency, cold plate test",[2]; 6-day delayed after bortezomib,same tendency as that in the duloxetine 3-day delayed administration group
